# Reference: paper PMC9814530, “Rapid de novo discovery of peptidomimetic affinity reagents for human angiotensin converting enzyme 2” (Communications Chemistry, 2022)
# “Also recorded” adds a separate entry of the source. Where a SMILES comes first, the peptide text is derived from it. [ ]: non-standard residue; d: D form. Phe(3,4-F2) = N[C@@H](Cc1ccc(F)c(F)c1)C(=O)O; Ala(4-thiazolyl) = N[C@@H](Cc1cscn1)C(=O)O; Phe(4-NH2) = Nc1ccc(C[C@H](N)C(=O)O)cc1; Met(O2) = CS(=O)(=O)CC[C@H](N)C(=O)O; Ala(cPr) = N[C@@H](CC1CC1)C(=O)O; Cha = N[C@@H](CC1CCCCC1)C(=O)O; β3hS = N[C@@H](CO)CC(=O)O; Orn = NCCC[C@H](N)C(=O)O
# Legend:
# ACE2 [1] = target: T1, ACE2 (Homo sapiens, UniProt Q9BYF1); assay: Bio-layer interferometry (BLI) binding of immobilized biotinylated peptides to ACE2; details: 500 nM of ACE2
# T1 sequence (Q9BYF1 18-740 limits assumed): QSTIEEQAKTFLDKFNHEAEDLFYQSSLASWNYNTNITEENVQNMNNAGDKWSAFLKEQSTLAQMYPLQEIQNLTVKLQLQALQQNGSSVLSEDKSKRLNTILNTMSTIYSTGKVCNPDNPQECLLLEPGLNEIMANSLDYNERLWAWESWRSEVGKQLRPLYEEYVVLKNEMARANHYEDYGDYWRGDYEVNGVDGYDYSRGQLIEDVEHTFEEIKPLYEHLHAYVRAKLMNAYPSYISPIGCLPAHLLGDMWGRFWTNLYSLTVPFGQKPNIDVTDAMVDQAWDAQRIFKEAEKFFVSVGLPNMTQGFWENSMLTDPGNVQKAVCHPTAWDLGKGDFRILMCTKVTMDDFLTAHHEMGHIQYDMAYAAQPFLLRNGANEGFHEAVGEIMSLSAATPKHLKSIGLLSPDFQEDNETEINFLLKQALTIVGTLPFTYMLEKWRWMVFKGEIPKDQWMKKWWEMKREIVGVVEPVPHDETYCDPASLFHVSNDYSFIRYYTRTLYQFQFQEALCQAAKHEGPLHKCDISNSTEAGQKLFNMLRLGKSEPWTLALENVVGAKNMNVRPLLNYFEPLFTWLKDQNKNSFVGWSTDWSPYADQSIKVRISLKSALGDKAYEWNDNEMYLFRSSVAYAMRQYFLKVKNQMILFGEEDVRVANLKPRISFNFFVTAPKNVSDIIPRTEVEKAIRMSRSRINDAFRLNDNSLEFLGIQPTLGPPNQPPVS
# Description: (§1) Peptide binding validation was carried out using the ForteBio Octet RED96 system. The chamber temperature was kept constant at 30 °C with a plate agitation speed at 1000 rpm. Briefly, streptavidin (SA)-coated biosensor tips were dipped into 200 μL of 1.0–2.0 μM biotinylated peptide solution (in a kinetic buffer (K.B.): 1 × PBS with 0.1% BSA and 0.02% Tween-20) for peptides immobilization. Once loaded with peptides, the tips were then moved into solutions containing various concentrations (1000, 500, 250, 125, and 62.5 nM) of recombinant ACE2 protein (purchased from Sino Biological, Catalog number 10108-H08H) in the K.B. to obtain the association curve. After the 180 s association step, the tips were moved back into the K.B. to obtain the dissociation curve. Buffer-only and protein-only conditions (concentration at 1000 nM) were used as references for background subtraction. The association and dissociation curves were fitted with the ForteBio Biosystems Data Analysis Software under 5 experimental conditions (n = 5, global fitting algorithm, binding model 1:1) to calculate the apparent dissociation constant (KD).
# Supplementary Note 4: Binding affinity measurements
# 4.1 BLI raw binding data of noncanonical peptides […]
# affinity was reported using the kinetic fitting results ( KD is calculated by divide the […]
# off rate by on rate). […] The ACE2
# (§2) (1 picture or pasted object on this page, not shown here)
# 4.2 BLI raw binding data of canonical peptides
# Supplementary Fig. 20. The BLI binding curve fitting (red lines) of ABP C1-C4 and ABP C7-C9 from Library 1 AS-MS against ACE2.
# ACE2 concentration was 250 nM.
# 12ca5 = assay: BLI binding to an unrelated (off-target) protein
# Description: as §1, with “(KD). […]” for “(KD).”
# 4.4 The binding of ABP noncanonical peptides to an unrelated protein
# N6, and N8 to an unrelated protein, 12ca5, measured by BLI at concentration
# as §2
# ACE2 [2] = target: T1, ACE2; assay: ACE2 pulldown from human serum (SDS-PAGE); format: binding; details: biotinylated peptide on streptavidin magnetic beads, ACE2 in 5% normal human serum, 1.0 h 4 °C, 6 M urea elution
# Description: After removing the supernatant and washing off the unbound fraction, the bound material was eluted with a high concentration of urea and analyzed using the sodium dodecyl sulfate–polyacrylamide gel electrophoresis (SDS-PAGE). […] Bound ACE2 was eluted for subsequent analysis. b The SDS-PAGE image with samples showing from left to right lanes: (1) molecular weight standard; (2) purified ACE2 protein (1.5 µg) as a loading control; (3) normal human serum as a control; (4) normal human serum mixed with ACE2 (1.5 µg); (5) elution of the bound fraction from the magnetic beads. NHS, Normal Human Serum (5%). Following a previous protocol, streptavidin-coated magnetic beads (100 µL, at 10 mg/mL) were pre-washed with blocking buffer (1 × PBS with 0.05% Tween-20, pH 7.4) and captured on a magnetic separation rack. The beads were then re-suspended in 1.0 mL of the same blocking buffer. […] After 30 min of incubation at 4 °C, the supernatant was removed and the beads were washed with 1 × PBS (3 × 1.0 mL) before incubation with the protein mixture. Soluble ACE2 (5 µL, 0.62 mg/mL) was mixed with 50 µL normal human serum in 1 × PBS (pH 7.4) to a final volume of 1.0 mL. The magnetic beads displaying immobilized ABP N1 were then added into the protein complex. […]
# ACE2 [3] = target: T1, ACE2; assay: ELISA detection of ACE2 coated from 1 x PBS; format: binding; details: ACE2 in 1 x PBS 10 pM-100 nM coated; biotinylated peptide 100 nM; streptavidin-HRP, TMB, A450
# Description: (§3) However, we observed a decreased detection sensitivity presumably due to the decreased amount of ACE2 being immobilized on the plate with many other serum proteins present. […] The plate was incubated with ABP N1 or control peptide, followed by streptavidin-HRP and TMB substrate. Absorbance was measured at 450 nm. The experiment was performed in technical triplicates (n = 3). Each data point, the mean signal as a bar, and error bars from experimental standard deviation, and statistical significance calculated with the unpaired Student’s t-test are shown. A serial dilution of soluble ACE2 was coated onto an ELISA plate (96-well format) overnight at 4 °C. The next day, the plate was blocked with 5% BSA in 1 × PBS supplement with 0.05% Tween-20 (PBST, pH 7.4) for 2–3 h at room temperature. […] Control groups are biotinylated peptide ABP N8 and PBST alone. The supernatant was then removed, and the wells were washed with PBST (3× 200 µL). Streptavidin-HRP conjugate in PBST (0.25 µg/mL, 100 µL) was added to each well and incubated for 30 min at room temperature. The plate was PBST-washed again (3 × 200 µL) before color development with 100 µL 1-Step™ Ultra TMB-ELISA Substrate Solution (Thermo Fisher, Catalog number 34028). After 10 min, the reaction was quenched with 2.0 M sulfuric acid (100 µL). Finally, the absorbance at 450 nm was measured on a microplate reader (BioTek) for all treated wells. […]
# ACE2 [4] = target: T1, ACE2; assay: ELISA detection of ACE2 coated from a mixture with normal human serum; format: binding; details: plate coated with normal human serum and exogenous ACE2; biotinylated peptide 100 nM; streptavidin-HRP, TMB, A450
# Description: as §3
# ACE2 [5] = target: T1, ACE2; assay: BLI binding competition of known ACE2 binders (AngII, MLN-4760) on the ABP-ACE2 interaction; parameters: Soluble ACE2 (5 µL, 0.62 mg/mL) was mixed with 50 µL normal human serum; details: immobilized biotinylated peptide
smiles,measurement,setting,value
"CS(=O)(=O)CC[C@H](NC(=O)[C@H](CC1CCCCC1)NC(=O)[C@H](Cc1cscn1)NC(=O)C[C@H](CO)NC(=O)[C@H](CCCN)NC(=O)[C@H](CCC(N)=O)NC(=O)[C@H](CCCN)NC(=O)[C@H](Cc1ccc(F)c(F)c1)NC(=O)[C@H](Cc1cscn1)NC(=O)[C@@H](N)CC1CC1)C(=O)NCC(=O)N[C@@H](Cc1ccc(N)cc1)C(=O)N[C@@H](CCCCN)C(N)=O [ABP N1] (H-[Ala(cPr)][Ala(4-thiazolyl)][Phe(3,4-F2)][Orn]Q[Orn][β3hS][Ala(4-thiazolyl)][Cha][Met(O2)]G[Phe(4-NH2)]K-NH2)",BLI response signal,ACE2 [1],~ 1.3 nm
same,higher signal for ACE2 than for 12ca5,"12ca5; 500 nM ACE2 versus 500 nM 12ca5, BLI",~ 5 fold
same,BLI response signal,12ca5; 500 nM of the off-target protein (12ca5),0.25 nm
same,binding to unrelated protein 12ca5 (in words),"12ca5; BLI, 12ca5 at 500 nM",minimal binding; also recorded: No apparent binding
same,pull-down of ACE2 from human serum,ACE2 [2],selective enrichment of ACE2 protein
same,ELISA detection of ACE2 (in words),ACE2 [3],picomolar concentration of ACE2 was detected
same,ELISA detection of ACE2 in human serum (in words),ACE2 [4],dose-dependent ACE2 detection
same,inhibition of ABP binding to ACE2 by AngII,ACE2 [5]; 500 nM ACE2 + 5 uM AngII (10-fold excess),not inhibited
same,inhibition of ABP binding to ACE2 by MLN-4760,ACE2 [5]; 500 nM ACE2 + 5 uM MLN-4760 (10-fold excess),partially inhibited
